The values that follow come from US20230045421A1 (priority 2018, published 2023).

Molecules are shown by their SMILES.

A word on the EC50: it is the concentration at which the effect is half-maximal.

In the first experiment the test system is HBV rcDNA. Kind of experiment: HepDE19 assay with bDNA quantitation of HBV rcDNA. The experiment is classed as cell-based, hepatitis B virus. Conditions: HepDE19 assay, inhibition of formation of rcDNA; read-out: DE-19bDNA EC50. As to the method: HepDE19 Assay with bDNA Quantitation of HBV rcDNA:
HepDE19 cell culture system is a HepG2 (human hepatocarcinoma) derived cell line that supports HBV DNA replication and cccDNA formation in a tetracycline (Tet)-regulated manner and produces HBV rcDNA and a detectable reporter molecule dependent on the production and maintenance of cccDNA (Guo, et al., 2007, J. Virol. 81:12472-12484).
HepDE19 (50,000 cells/well) were plated in 96-well collagen-coated tissue-culture treated microtiter plates in DMEM/F12 medium supplemented with 10% fetal bovine serum, 1% penicillin-streptomycin and 1 μg/mL tetracycline and incubated in a humidified incubator at 37° C. and 5% CO2 overnight. Next day, the cells were switched to fresh medium without tetracycline and incubated for 4 hours at 37° C. and 5% CO2. The cells were treated with fresh Tet-free medium with compounds at concentrations starting at 25 μM and a serial, […], 8-point, titration series in duplicate. The final DMSO concentration in the assay was 0.5%. The plates were incubated for 7 days in a humidified incubator at 37° C. and 5% CO2. Following a 7 day-incubation, the level of rcDNA present in the inhibitor-treated wells was measured using a Quantigene 2.0 bDNA assay kit (Affymetrix, Santa Clara, Calif.) with HBV specific custom probe set and manufacturers instructions. Concurrently, the effect of compounds on cell viability was assessed using replicate plates, plated at a density of 5,000 cells/well and incubated for 4 days, to determine the ATP content as a measure of cell viability using the cell-titer glo reagent (CTG; Promega Corporation, Madison, Wis.) as per manufacturer's instructions. The plates were read using a Victor luminescence plate reader (PerkinElmer Model 1420 Multilabel counter) and the relative luminescence units (RLU) data generated from each well was calculated as % inhibition of the untreated control wells and analyzed using XL-Fit module in Microsoft Excel to determine EC50 and EC90 (bDNA) and CC50 (CTG) values using a 4-parameter curve fitting algorithm.
With `CC(=O)N1CCC(CN(C(=O)Nc2ccc(F)c(Cl)c2)C(C)c2c[nH]c(=O)c3ccccc23)CC1` (single isomer, unassigned) [Compound 202, 1-((1-Acetylpiperidin-4-yl)methyl)-3-(3-chloro-4-fluorophenyl)-1-(1-(1-oxo-1,2-dihydroisoquinolin-4-yl)ethyl)urea], the EC50 came to 7.3 µM.

For `CC(c1c[nH]c(=O)c2ccccc12)N(CC[C@@H](C)O)C(=O)Nc1ccc(F)c(Cl)c1` (single isomer, unassigned) [Compound 211], the EC50 is 2.7 µM.

For `CC(c1c[nH]c(=O)c2ccccc12)N(CCS(N)(=O)=O)C(=O)Nc1ccc(F)c(Cl)c1` (single isomer, unassigned) [Compound 119, 2-(3-(3-Chloro-4-fluorophenyl)-1-(1-(1-oxo-1,2-dihydroisoquinolin-4-yl)ethyl)ureido) ethanesulfonamide], the EC50 came out at 0.07 µM.

In the case of `CC(c1c[nH]c(=O)c2c(Cl)cccc12)N(C)C(=O)Nc1ccc(F)c(Cl)c1` (single isomer, unassigned) [Compound 167, 1-(1-(8-Chloro-1-oxo-1,2-dihydroisoquinolin-4-yl)ethyl)-3-(3-chloro-4-fluorophenyl)-1-methylurea], the EC50 came to 2.4 µM.

Regarding `CC(c1c[nH]c(=O)c2ccccc12)N(CC(C)(C)CO)C(=O)Nc1ccc(F)c(Cl)c1` (single isomer, unassigned) [Compound 209, 3-(3-Chloro-4-fluorophenyl)-1-(3-hydroxy-2,2-dimethylpropyl)-1-(1-(1-oxo-1,2-dihydroisoquinolin-4-yl)ethyl)urea], the EC50 was determined as 7.9 µM.

For the compound `CC(c1c[nH]c(=O)c2cc(F)ccc12)N(C)C(=O)Nc1ccc(F)c(Cl)c1` (single isomer, unassigned) [Compound 263, 3-(3-Chloro-4-fluorophenyl)-1-(1-(7-fluoro-1-oxo-1,2-dihydroisoquinolin-4-yl)ethyl)-1-methylurea], the EC50 is 0.78 µM.

Turning to `COCCCN(C(=O)Nc1ccc(F)c(Cl)c1)C(C)c1c[nH]c(=O)c2ccccc12` (centres unmarked) [Compound 80], the EC50 worked out at 0.03 µM.

The experiment is the same for the next values; noted with them: HepDE19 assay, inhibition of formation of relaxed circular DNA (rcDNA), bDNA quantitation; read-out: DE-19bDNA EC50.
Consider `CC(C)CN(C(=O)Nc1ccc(F)cc1)C(C)c1c[nH]c(=O)c2cc(F)c(F)cc12` (single isomer, unassigned) [Compound 287, 1-(1-(6,7-Difluoro-1-oxo-1,2-dihydroisoquinolin-4-yl)ethyl)-3-(4-fluorophenyl)-1-isobutylurea], for which the concentration for a half-maximal effect (EC50) worked out at 1.5 µM.

In the case of `CC(c1c[nH]c(=O)c2c(F)cc(F)cc12)N(CCCO)C(=O)Nc1ccc(F)cc1` (single isomer, unassigned) [Compound 378, 1-(1-(6,8-Difluoro-1-oxo-1,2-dihydroisoquinolin-4-yl)ethyl)-3-(4-fluorophenyl)-1-(3-hydroxypropyl) urea], the EC50 stood at 0.024 µM.

As for `CC(c1c[nH]c(=O)c2c(F)c(F)ccc12)N(C)C(=O)Nc1cc(F)c(F)c(F)c1` (single isomer, unassigned) [Compound 442, 1-(1-(7,8-Difluoro-1-oxo-1,2-dihydroisoquinolin-4-yl)ethyl)-1-methyl-3-(3,4,5-trifluorophenyl)urea], the 50% effective concentration (EC50) turned out to be 4.7 µM.

Take `CC(c1c[nH]c(=O)c2c(F)c(F)ccc12)N(C)C(=O)Nc1cc(Cl)c(F)c(Cl)c1` (single isomer, unassigned) [Compound 451, 3-(3,5-Dichloro-4-fluorophenyl)-1-(1-(7,8-difluoro-1-oxo-1,2-dihydroisoquinolin-4-yl)ethyl)-1-methylurea]: the EC50 turned out to be 3.2 µM.

`CCN(C(=O)Nc1ccc(F)c(F)c1)C(C)c1c[nH]c(=O)c2c(F)c(F)ccc12` (single isomer, unassigned) [Compound 463, 1-(1-(7,8-Difluoro-1-oxo-1,2-dihydroisoquinolin-4-yl)ethyl)-3-(3,4-difluorophenyl)-1-ethylurea]: the EC50 came out at 0.008 µM.

Turning to `CC(C)CN(C(=O)Nc1ccc(F)c(Cl)c1)C(C)c1c[nH]c(=O)c2c(F)c(F)ccc12` (single isomer, unassigned) [Compound 338, 3-(3-Chloro-4-fluorophenyl)-1-(1-(7,8-difluoro-1-oxo-1,2-dihydroisoquinolin-4-yl)ethyl)-1-isobutylurea], the EC50 amounted to 0.8 µM.

Turning to `CC(c1c[nH]c(=O)c2c(F)c(F)ccc12)N(C)C(=O)NCc1cc(F)c(F)c(F)c1` (single isomer, unassigned) [Compound 494, 1-(1-(7,8-Difluoro-1-oxo-1,2-dihydroisoquinolin-4-yl)ethyl)-1-methyl-3-(3,4,5-trifluorobenzyl)urea], the EC50 was determined as 0.89 µM.

Regarding `CC(c1cnc(OCc2nc[nH]n2)c2cc(F)c(F)cc12)N(C)C(=O)Nc1ccc(F)c(Cl)c1` (single isomer, unassigned) [Compound 362, 1-(1-(1-((1H-1,2,4-Triazol-3-yl)methoxy)-6,7-difluoroisoquinolin-4-yl)ethyl)-3-(3-chloro-4-fluorophenyl)-1-methylurea], the EC50 came out at 0.89 µM.

`CC(C)CN(C(=O)Nc1ccc(F)c(Cl)c1)C(C)c1c[nH]c(=O)c2c(F)c(F)ccc12` (single isomer, unassigned) [Compound 339, 3-(3-Chloro-4-fluorophenyl)-1-(1-(7,8-difluoro-1-oxo-1,2-dihydroisoquinolin-4-yl)ethyl)-1-isobutylurea]: the EC50 stood at 0.005 µM.

Take `CCN(C(=O)Nc1ccc(F)c(Cl)c1)C(C)c1c[nH]c(=O)c2c(F)c(F)ccc12` (single isomer, unassigned) [Compound 469, 3-(3-Chloro-4-fluorophenyl)-1-(1-(7,8-difluoro-1-oxo-1,2-dihydroisoquinolin-4-yl)ethyl)-1-ethylurea]: the concentration giving a half-maximal response (EC50) was 0.005 µM.

With `CC(c1c[nH]c(=O)c2cc(F)c(F)cc12)N(CCS(N)(=O)=O)C(=O)Nc1ccc(F)c(Cl)c1` (single isomer, unassigned) [Compound 385, 2-(3-(3-Chloro-4-fluorophenyl)-1-(1-(6,7-difluoro-1-oxo-1,2-dihydroisoquinolin-4-yl)ethyl)ureido) ethane-1-sulfonamide], the EC50 came out at 2.6 µM.

For the compound `CC(c1c[nH]c(=O)c2c(F)c(F)ccc12)N(CCS(N)(=O)=O)C(=O)Nc1ccc(F)cc1` (single isomer, unassigned) [Compound 394, 2-(1-(1-(7,8-Difluoro-1-oxo-1,2-dihydroisoquinolin-4-yl)ethyl)-3-(4-fluorophenyl)ureido)ethane-1-sulfonamide], the EC50 turned out to be 10 µM.

With `CC(c1c[nH]c(=O)c2ccccc12)N(Cc1ccccn1)C(=O)Nc1ccc(F)c(Cl)c1` (single isomer, unassigned) [Compound 305, 3-(3-Chloro-4-fluorophenyl)-1-(1-(1-oxo-1,2-dihydroisoquinolin-4-yl)ethyl)-1-(pyridin-2-ylmethyl) urea], the EC50 turned out to be 0.59 µM.

The experiment is the same for the next values; noted with them: Hepatitis B virus, HepDE19, HepDE19 assay, inhibition of formation of rcDNA; read-out: DE-19bDNA EC50.
Turning to `COc1ncc(C(C)N(C)C(=O)Nc2ccc(F)c(Cl)c2)c2nccnc12` (racemic) [Compound 137, 3-(3-chloro-4-fluorophenyl)-1-(1-(5-methoxypyrido[3,4-b]pyrazin-8-yl)ethyl)-1-methylurea], the half-maximal effective concentration (EC50) came to 6.1 µM.

Turning to `CC(c1cn(CC(F)(F)F)c(=O)c2ccccc12)N(C)C(=O)Nc1ccc(F)c(Cl)c1` (racemic) [Compound 228, 3-(3-Chloro-4-fluorophenyl)-1-methyl-1-(1-(1-oxo-2-(2,2,2-trifluoroethyl)-1,2-dihydroisoquinolin-4-yl)ethyl)urea], the EC50 stood at 0.78 µM.

Still in this experiment, the particulars now being: Hepatitis B virus, HepDE19, read-out: DE-19bDNA EC50 (μM), HepDE19 assay, inhibition of formation of rcDNA.
In the case of `C[C@H](c1c[nH]c(=O)c2ccccc12)N(C)C(=O)Nc1ccnc(C(F)(F)F)c1` (single isomer, unassigned) [Compound 95], the EC50 stood at 1.1 µM.

Staying with this experiment, now noted: read-out: DE-19bDNA EC50; HepDE19 assay, inhibition of formation of rcDNA.
Regarding `CC(c1c[nH]c(=O)c2cc(F)c(F)cc12)N(C)C(=O)Nc1ccc(F)c(Cl)c1` (single isomer, unassigned) [Compound 279, 3-(3-Chloro-4-fluorophenyl)-1-(1-(6,7-difluoro-1-oxo-1,2-dihydroisoquinolin-4-yl)ethyl)-1-methylurea], the EC50 was 0.007 µM.

The same experiment, now with this note: read-out: DE-19bDNA EC50; HepDE19 assay, inhibition of formation of relaxed circular DNA (rcDNA), bDNA quantitation.
As to `CCN(C(=O)Nc1ccccc1)C(C)c1c[nH]c(=O)c2c(F)c(F)ccc12` (single isomer, unassigned) [Compound 466, 1-(1-(7,8-Difluoro-1-oxo-1,2-dihydroisoquinolin-4-yl)ethyl)-1-ethyl-3-phenylurea], the EC50 amounted to 8.5 µM.

For `CC(c1c[nH]c(=O)c2cc(F)c(F)cc12)N(C)C(=O)Nc1cccc(F)c1` (single isomer, unassigned) [Compound 411, 1-(1-(6,7-Difluoro-1-oxo-1,2-dihydroisoquinolin-4-yl)ethyl)-3-(3-fluorophenyl)-1-methylurea], the EC50 amounted to 0.037 µM.
